Test in all cases: NCI tumour cell line growth inhibition, 48 h
The subject of experiment [1] is KM20L2 colon.
Experiment [2] relates to SNB-78 CNS.
Experiment [3] deals with RXF-631 renal.
The subject of experiment [4] is LXFL 529 NSCLC.
In experiment [5] the test system is DMS 273 small cell lung.
Experiment [6] deals with XF 498 CNS.
Experiment [7] concerns DMS 114 small cell lung.
Experiment [8] has as its system M19-MEL melanoma.
For experiment [9], the system named is DLD-1 colon.
Experiment [10] deals with HOP-18 NSCLC.
The test system of experiment [11] is P388/ADR leukemia.
Experiment [12] deals with P388 leukemia.
The test system of experiment [13] is SN12K1 renal.

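Assay format: 96-well plates, 48-hour exposure. Definition used: TGI = concentration required for complete inhibition of growth.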

Turning to `O=C(Nc1ccc([N+](=O)[O-])cc1)C(=O)C(C(=O)c1ccccc1F)C1OC(=O)c2ccccc21` (stereo not drawn), the TGI in experiment [1] was > 100 µM; in experiment [2], > 100 µM; in experiment [3] it was 84 µM; in experiment [4] it was > 100 µM; in experiment [5] it was > 100 µM; in [6], > 100 µM. The values for the TGI in [7], in experiment [8] and in experiment [9] were 98 µM, > 100 µM and > 100 µM, respectively.
As to `Cn1c(=O)nc2n(-c3ccc(Cl)cc3Cl)c3ccccc3nc-2c1=O`, the TGI was 5.8 µM in experiment [1]; 39.3 µM in [2]; 0.864 µM in experiment [6]; 4.26 µM in [7]; 2.91 µM in experiment [8]; 23 µM in [10]. In experiment [9], this compound came in with a TGI of 24.5 µM.
As for `CC(=O)O[C@]12CCC[C@H]1C1(O)C(O)CCC[C@H]12` (stereo partly drawn), the TGI in experiment [1], in [2], in experiment [4], in [5], in [6] and in experiment [7] was > 100 µM throughout. In addition, the TGI in experiment [8] and in [10] was > 100 µM throughout.
With `CC(Oc1ccc(OCC2CCCCC2)cc1)C(=O)N(CCO)CCO` (stereo not drawn), the TGI in [2], in [4], in [5], in experiment [6], in experiment [7] and in experiment [8] was > 100 µM throughout. In addition, the TGI in [10] is > 100 µM.
Regarding `CN(C)c1ccc(/C=C/c2cc[n+](C)c3ccccc23)cc1`, the TGI is 13.1 µM in experiment [1]; 72.4 µM in [2]; 13.5 µM in experiment [4]; 10.8 µM in [5]; 9.5 µM in experiment [7]; 14.9 µM in experiment [8]. For the same compound, the TGI turned out to be 19.9 µM in [10] and 17.1 µM in [9].
Turning to `C=CC12CN(C)C3C4COC(CC41)C1(C(=O)Nc4ccccc41)C32` (stereo not drawn), the TGI in experiment [1] is > 200 µM; in experiment [2], > 200 µM; in experiment [11], > 200 µM; in [5], > 200 µM; in experiment [6], 29.2 µM; in experiment [7] it was > 200 µM. Besides, the TGI was > 133 µM in experiment [12]; > 200 µM in experiment [13]; > 200 µM in experiment [8]; > 200 µM in [10]; > 200 µM in experiment [9].
Take `OC(c1ccccc1)(c1ccccc1)c1cccnc1`: the TGI in [1], in experiment [2], in experiment [5], in [6], in [7] and in experiment [8] was > 100 µM each time. Moreover, the TGI in experiment [10] and in [9] was > 100 µM each time.
Turning to `[O-]c1on[n+]2c1c(Nc1ccc(Cl)cc1)nc1ccccc12`, the TGI in [1], in experiment [2], in experiment [4], in experiment [5], in experiment [6] and in experiment [7] was > 100 µM in each case. Moreover, the TGI in experiment [8] and in experiment [9] was > 100 µM each time.
With `CC(C)=CCC/C(C)=C/Cc1c(O)ccc2c1[nH]c1cc(O)c(C)cc12`, the TGI in experiment [1], in experiment [2], in [4], in experiment [5], in experiment [6] and in experiment [7] was > 25 µM each time. Besides, the TGI in [8] and in [9] was > 25 µM throughout.
`COC(=O)[C@@]12OC[C@]34C([C@@H](O)C1O)[C@@]1(C)CC(=O)C(O)=C(C)C1C[C@H]3OC(=O)[C@H](OC(=O)CC(C)C(F)(F)F)[C@H]42` (stereo partly drawn): the TGI stood at 0.172 µM in [1]; 37.5 µM in [2]; 0.195 µM in [4]; 0.0426 µM in [5]; 0.188 µM in experiment [6]; 0.128 µM in experiment [7]. For the same compound, the TGI was determined as 0.205 µM in [8], 2.79 µM in experiment [10] and 0.509 µM in [9].
